Where a name gives a salt, the structure may show the parent alone. Read-outs that look alike come from different tables or passages of the source. Blank lines part the entries; values can stand above or below the compound they belong to.
Tests used:
ABCB1 [1] = target: T1, ABCB1 (Homo sapiens, UniProt P08183); assay: Ex vivo [^3H]-digoxin accumulation in hPCIS prepared from the jejunum
Method: Ex vivo accumulation assays were performed as previously described. Directly after surgery, the resected part of the human jejunum was placed in cold (4 °C) Krebs–Henseleit buffer oxygenated with carbogen gas. The muscle layer was removed, and the remaining mucosa was cut into fragments measuring approximately 5 by 20 mm, which were then embedded in a 3% agarose solution (3% (wt/vol) in 0.9% NaCl, 37 °C). PCIS of approximately 300 µm thickness were cut using a Krumdieck tissue slicer (Alabama R&D, Munford, AL, USA). […] Both incubation steps were conducted in a humidified atmosphere of […] and 5% CO2 at 37 °C [32, 34, 35]. The accumulation of [^3H]-digoxin was stopped after 2 h of incubation by washing the slices twice in the Krebs–Henseleit cold buffer (4 °C). […] The samples were then centrifuged (10 min; 7800 g). Concentrations of [^3H]-digoxin in the supernatant samples (300 µL) were assessed after mixing them with 1.5 mL of Ultima Gold™ via scintillation counting (Tri-Carb 2900TR liquid scintillation analyzer, Packard Bioscience). The pellets obtained during centrifugation were dried overnight at 37 °C and then solubilized in 200 µL of 5 M NaOH for 24 h. Milli-Q water was then added to the samples to achieve a NaOH concentration of 1 M. The protein content was measured using a bicinchoninic acid protein kit (Thermo Fisher Scientific, Waltham, MA, USA). The measured [^3H]-digoxin concentrations were normalized against the protein content.

ABCB1 [2] = target: T1, ABCB1; assay: Bidirectional transport of [^3H]-digoxin across Caco-2 monolayers
Method: Caco-2 cells were seeded at a density of 3 × 10^5 cells per insert and cultured for 21 days in a standard cultivation medium containing 1% penicillin–streptomycin. The medium was changed every other day, during which the transepithelial electrical resistance (TEER) across the cell monolayers was measured using a Millicell-ERS instrument (Millipore Corporation, Bedford, MA, USA). […] For the bidirectional permeability assay, a Hanks’ balanced salt solution buffer was used. The pH in the A compartment was adjusted to 6.5 using a methanesulfonic acid solution, while that in the B compartment was adjusted to 7.4 using a HEPES solution [34, 80]. The volumes used were 0.5 mL and 1.5 mL in compartments A and B, respectively. To improve the reproducibility of the results, the receiver compartment always contained 1% bovine serum albumin, as previously recommended. […] Samples (200 µL) were collected after 1 and 2 h from the receiver compartment; after the first collection, fresh receiver solution was added to the receiver compartment to maintain the original volume. The concentration of [^3H]-digoxin was quantified using a Tri-Carb 2900TR liquid scintillation analyzer (Packard Bioscience, Meriden, CT, USA). Its concentration in the samples collected during Caco-2 experiments was measured after adding 1 mL of Ultima Gold^TM Cocktail. A to B and B to A transport were evaluated in terms of an apparent permeability coefficient (Papp), calculated using the equation in [80, 81]. […] The efflux ratio (rPapp) was then calculated using the equation [80, 82]:rPapp = (Papp B to A)/(Papp A to B)(2)

Solubility = assay type: physicochemical; conditions: incubation medium, 0.1% DMSO
Method: The stock solutions were stored at −20 °C before use. The final concentration of DMSO was 0.1% in all experiments. The final concentrations of EtOH in hPCIS and Caco-2 cells were 0.03% and 0.012%, respectively.

ABCB1 [3] = target: T1, ABCB1; design: confirming the functional expression of ABCB1 in the Caco-2 cells; host or cells: Caco-2; method as in PMID 31481446; conditions: Caco-2, cited from earlier work
ABCB1 [4] = target: T1, ABCB1; design: confirming the functional expression of ABCB1 in the Caco-2 cells; host or cells: Caco-2; method as in PMID 31481446; conditions: hPCIS, cited from earlier work
[5] = cited from earlier work
ABCB1 [6] = system: ABCB1; design: method as in PMID 23132334; conditions: apparent activity at 100 µM; cited from earlier work
ABCB1 [7] = conditions: suggested; cited from earlier work

T1 sequence (P08183 whole entry, the tested form may be a part): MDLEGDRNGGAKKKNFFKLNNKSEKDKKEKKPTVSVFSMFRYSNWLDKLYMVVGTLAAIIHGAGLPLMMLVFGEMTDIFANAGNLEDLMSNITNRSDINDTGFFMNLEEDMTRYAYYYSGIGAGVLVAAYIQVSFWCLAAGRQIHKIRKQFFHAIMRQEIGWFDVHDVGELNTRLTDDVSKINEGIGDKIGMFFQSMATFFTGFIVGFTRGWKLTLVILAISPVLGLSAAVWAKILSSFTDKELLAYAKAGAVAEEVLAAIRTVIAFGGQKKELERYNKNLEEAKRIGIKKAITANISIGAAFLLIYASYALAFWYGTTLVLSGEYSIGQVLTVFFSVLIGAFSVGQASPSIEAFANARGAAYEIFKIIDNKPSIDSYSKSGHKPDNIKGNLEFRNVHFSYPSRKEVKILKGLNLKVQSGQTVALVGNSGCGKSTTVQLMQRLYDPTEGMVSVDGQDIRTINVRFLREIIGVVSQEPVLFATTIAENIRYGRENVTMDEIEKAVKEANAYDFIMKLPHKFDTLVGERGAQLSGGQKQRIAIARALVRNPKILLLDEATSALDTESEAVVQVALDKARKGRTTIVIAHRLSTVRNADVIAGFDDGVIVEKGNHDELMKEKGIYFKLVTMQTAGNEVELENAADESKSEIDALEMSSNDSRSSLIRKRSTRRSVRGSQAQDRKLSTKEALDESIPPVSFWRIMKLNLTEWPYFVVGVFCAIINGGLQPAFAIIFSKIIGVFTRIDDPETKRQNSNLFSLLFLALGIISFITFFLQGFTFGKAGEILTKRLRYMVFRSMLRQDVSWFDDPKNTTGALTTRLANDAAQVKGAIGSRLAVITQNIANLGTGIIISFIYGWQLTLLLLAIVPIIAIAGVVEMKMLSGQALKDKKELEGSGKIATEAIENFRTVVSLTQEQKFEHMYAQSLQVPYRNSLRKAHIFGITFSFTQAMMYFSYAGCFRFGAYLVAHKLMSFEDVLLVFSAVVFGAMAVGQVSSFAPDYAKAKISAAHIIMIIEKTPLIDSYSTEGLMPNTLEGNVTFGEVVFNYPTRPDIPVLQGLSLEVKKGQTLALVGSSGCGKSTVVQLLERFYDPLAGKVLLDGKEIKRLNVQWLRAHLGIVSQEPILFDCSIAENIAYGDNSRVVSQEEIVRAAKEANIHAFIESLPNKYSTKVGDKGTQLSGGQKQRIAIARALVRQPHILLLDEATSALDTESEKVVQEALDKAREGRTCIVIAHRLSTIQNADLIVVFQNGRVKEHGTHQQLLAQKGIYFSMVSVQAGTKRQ

Compound: CC(C)CN(C[C@@H](O)[C@H](Cc1ccccc1)NC(=O)O[C@H]1CO[C@H]2OCC[C@H]21)S(=O)(=O)c1ccc(N)cc1 [Darunavir, darunavir]
- Digoxin Inhibition in human PCIS (in words) (ABCB1 [1]; compound 50 µM, hPCIS): did not inhibit

Compound: Cc1cc(C#N)cc(C)c1Oc1nc(Nc2ccc(C#N)cc2)nc(N)c1Br [Etravirine, etravirine]
- Digoxin Inhibition in human PCIS (in words) (ABCB1 [1]; compound 20 µM, hPCIS): did not inhibit
- Digoxin Inhibition (bidirectional transport, in words) (ABCB1 [2]; compound 20 µM): YES
- Solubility (in words) (Solubility): low solubility

Compound: COC(=O)N[C@H](C(=O)N[C@@H](Cc1ccccc1)[C@@H](O)CN(Cc1ccc(-c2ccccn2)cc1)NC(=O)[C@@H](NC(=O)OC)C(C)(C)C)C(C)(C)C [Atazanavir, atazanavir]
- Digoxin Inhibition in human PCIS (in words) (ABCB1 [1]; compound 20 µM, hPCIS): did not inhibit
- Digoxin Inhibition in human PCIS (in words) (ABCB1 [1]; compound 50 µM, hPCIS): YES
- Digoxin Inhibition (bidirectional transport, in words) (ABCB1 [2]; compound 50 µM): YES
- RHD123 Inhibition (bidirectional transport) (ABCB1 [3]; compound 50 µM): YES
- RHD123 Inhibition in human PCIS (ABCB1 [4]; compound 50 µM): YES

Compound: C=C[C@@H]1C[C@]1(NC(=O)[C@@H]1C[C@@H]2CN1C(=O)[C@H](C(C)(C)C)NC(=O)O[C@@H]1C[C@H]1CCCCCc1nc3ccc(OC)cc3nc1O2)C(=O)NS(=O)(=O)C1CC1.O [Grazoprevir, grazoprevir]
- Digoxin Inhibition in human PCIS (in words) (ABCB1 [1]): increased [^3H]-digoxin uptake

Compound: Cc1cc(/C=C/C#N)cc(C)c1Nc1ccnc(Nc2ccc(C#N)cc2)n1 [Rilpivirine, rilpivirine]
- Digoxin Inhibition in human PCIS (in words) (ABCB1 [1]; compound 20 µM, hPCIS): did not inhibit
- Digoxin Inhibition (bidirectional transport, in words) (ABCB1 [2]; compound 20 µM): YES
- Effect on the pharmacokinetics of digoxin or tenofovir DF in vivo ([5]; dose of 25 mg/day): does not significantly affect

Compound: COC(=O)N[C@H](C(=O)N1CC2(CC2)C[C@H]1c1ncc(-c2ccc3c(c2)C(F)(F)c2cc(-c4ccc5nc([C@@H]6[C@H]7CC[C@H](C7)N6C(=O)[C@@H](NC(=O)OC)C(C)C)[nH]c5c4)ccc2-3)[nH]1)C(C)C [Ledipasvir, ledipasvir]
- Digoxin Inhibition in human PCIS (in words) (ABCB1 [1]; compound 20 µM, hPCIS): no inhibition
- Digoxin Inhibition in human PCIS (in words) (ABCB1 [1]; compound 50 µM, hPCIS): no inhibition
- Digoxin Inhibition (bidirectional transport, in words) (ABCB1 [2]; compound 50 µM): YES
- RHD123 Inhibition (bidirectional transport) (ABCB1 [3]; compound 50 µM): YES
- Solubility (in words) (Solubility): low solubility

Compound: COC(=O)N[C@H](C(=O)N1CCC[C@H]1c1nc(-c2ccc3c(c2)O[C@@H](c2ccccc2)n2c-3cc3cc(-c4c[nH]c([C@@H]5CCCN5C(=O)[C@@H](NC(=O)OC)C(C)C)n4)ccc32)c[nH]1)C(C)C [Elbasvir, elbasvir]
- Digoxin Inhibition in human PCIS (in words) (ABCB1 [1]; compound 5 µM, hPCIS): no inhibition
- Increase in plasma AUC (intestinal ABCB1 inhibition) ([5]; humans): 11%
- Solubility (in words) (Solubility): low solubility

Compound: maraviroc
- Digoxin Inhibition in human PCIS (in words) (ABCB1 [1]; compound 100 µM, hPCIS): did not induce any detectable inhibition
- Digoxin Inhibition (bidirectional transport, in words) (ABCB1 [2]; compound 100 µM): No significant effect
- RHD123 Inhibition (bidirectional transport) (ABCB1 [3]; compound 100 µM): YES

Compound: COC(=O)N[C@H](C(=O)N1CCC[C@H]1c1nc(-c2ccc(-c3ccc(-c4c[nH]c([C@@H]5CCCN5C(=O)[C@@H](NC(=O)OC)C(C)C)n4)cc3)cc2)c[nH]1)C(C)C [Daclatasvir, daclatasvir]
- Digoxin Inhibition in human PCIS (in words) (ABCB1 [1]; compound 20 µM, hPCIS): YES
- RHD123 Inhibition (bidirectional transport) (ABCB1 [3]; compound 20 µM): YES

Compound: C[C@H]1O[C@@H](O[C@H]2[C@@H](O)C[C@H](O[C@H]3[C@@H](O)C[C@H](O[C@H]4CC[C@@]5(C)[C@H](CC[C@@H]6[C@@H]5C[C@@H](O)[C@]5(C)[C@@H](C7=CC(=O)OC7)CC[C@]65O)C4)O[C@@H]3C)O[C@@H]2C)C[C@H](O)[C@@H]1O [Digoxin, digoxin]
- efflux ratio at 2 h, 6 nM (ABCB1 [2]; human): 9.53 ± 2.22

Second part, led by results:

- Digoxin Inhibition in human PCIS (in words) (ABCB1 [1]; compound 100 µM, hPCIS): did not induce any detectable inhibition
Compound: CC(C)OC(=O)OCOP(=O)(CO[C@H](C)Cn1cnc2c(N)ncnc21)OCOC(=O)OC(C)C [Tenofovir DF, tenofovir disoproxil fumarate]

- Digoxin Inhibition in human PCIS (in words) (ABCB1 [1]; compound 100 µM, hPCIS): did not induce any detectable inhibition
- Digoxin Inhibition (bidirectional transport, in words) (ABCB1 [2]; compound 100 µM): No significant effect
Compound: Nc1nc(NC2CC2)c2ncn([C@H]3C=C[C@@H](CO)C3)c2n1 [Abacavir, abacavir]

- Digoxin Inhibition in human PCIS (in words) (ABCB1 [1]; compound 5 µM, hPCIS): did not induce any detectable inhibition
- Digoxin Inhibition in human PCIS (in words) (ABCB1 [1]; compound 20 µM, hPCIS): YES
- Digoxin Inhibition (bidirectional transport, in words) (ABCB1 [2]; compound 20 µM): YES
Compound: CC(C)(C)NC(=O)[C@@H]1C[C@@H]2CCCC[C@@H]2CN1C[C@@H](O)[C@H](Cc1ccccc1)NC(=O)[C@H](CC(N)=O)NC(=O)c1ccc2ccccc2n1 [Saquinavir, saquinavir]
- RHD123 Inhibition (bidirectional transport) (ABCB1 [3]; compound 20 µM): YES
- RHD123 Inhibition in human PCIS (ABCB1 [4]; compound 20 µM): YES

- Digoxin Inhibition in human PCIS (in words) (ABCB1 [1]; compound 100 µM, hPCIS): did not induce any detectable inhibition
- Digoxin Inhibition (bidirectional transport, in words) (ABCB1 [2]; compound 100 µM): No significant effect
Compound: Cc1cn([C@H]2C[C@H](N=[N+]=[N-])[C@@H](CO)O2)c(=O)[nH]c1=O [Zidovudine, zidovudine]

- Digoxin Inhibition in human PCIS (in words) (ABCB1 [1]): no effect
Compound: CC(C)OC(=O)[C@H](C)N[P@](=O)(OC[C@H]1O[C@@H](n2ccc(=O)[nH]c2=O)[C@](C)(F)[C@@H]1O)Oc1ccccc1 [Sofosbuvir, sofosbuvir]

- Digoxin Inhibition in human PCIS (in words) (ABCB1 [1]; compound 10 µM, hPCIS): did not induce any detectable inhibition
- Digoxin Inhibition (bidirectional transport, in words) (ABCB1 [2]; compound 10 µM): No significant effect
- Solubility (in words) (Solubility): limited solubility
Compound: C[C@@H]1CCO[C@H]2Cn3cc(C(=O)NCc4ccc(F)cc4F)c(=O)c(O)c3C(=O)N12 [Dolutegravir, dolutegravir]
- Inhibition of digoxin transport in MDCK-ABCB1 cells (ABCB1 [6]): weak inhibitor

- Digoxin Inhibition (bidirectional transport, in words) (ABCB1 [2]; compound 5 µM): No significant effect
- Solubility (in words) (Solubility): limited solubility
Compound: COC[C@H]1C[C@@H](c2ncc(-c3ccc4c(c3)COc3cc5c(ccc6nc([C@@H]7CC[C@H](C)N7C(=O)[C@@H](NC(=O)OC)C(C)C)[nH]c65)cc3-4)[nH]2)N(C(=O)[C@H](NC(=O)OC)c2ccccc2)C1 [Velpatasvir, velpatasvir]
- Increase of digoxin exposure ([5]; healthy volunteers): 34%
- IC50 (ABCB1 [7]): ~20.6 µM

- Digoxin Inhibition in human PCIS (in words) (ABCB1 [1]; compound 20 µM, hPCIS): did not induce any detectable inhibition
- Digoxin Inhibition in human PCIS (in words) (ABCB1 [1]; compound 50 µM, hPCIS): YES
Compound: Cc1cccc(C)c1OCC(=O)N[C@@H](Cc1ccccc1)[C@@H](O)C[C@H](Cc1ccccc1)NC(=O)[C@H](C(C)C)N1CCCNC1=O [Lopinavir, lopinavir]
- RHD123 Inhibition in human PCIS (ABCB1 [4]; compound 50 µM): YES
